Reference: ChEMBL document CHEMBL1155301, “Optimization of the aminopyridopyrazinones class of PDE5 inhibitors: discovery of 3-[(trans-4-hydroxycyclohexyl)amino]-7-(6-methoxypyridin-3-yl)-1-(2-propoxyethyl)pyrido[3,4-b]pyrazin-2(1H)-one” (Bioorg Med Chem Lett, 2009)

target: cGMP-specific 3',5'-cyclic phosphodiesterase (Homo sapiens, UniProt O76074); test: Inhibition of PDE5; conditions: not given

| IC50 [nM] | SMILES |
| --- | --- |
| 0.25 | CCCOCCn1c(=O)c(NCCN)nc2cnc(-c3ccc(OC)nc3)cc21 |
| 1.65 | CCCOCCn1c(=O)c(NCC(=O)N2CCNCC2)nc2cnc(-c3ccc(OC)nc3)cc21 |
| 16.3 | CCCOCCn1c(=O)c(NCCN)nc2ncc(-c3ccc(OC)nc3)cc21 |
| 0.32 | CCCOCCn1c(=O)c(N[C@H]2CC[C@H](O)CC2)nc2ncc(-c3ccc(OC)nc3)cc21 |
| 0.24 | CCCOCCn1c(=O)c(N[C@@H](C)CO)nc2cnc(-c3ccc(OC)nc3)cc21 |
| 0.78 | CCCOCCn1c(=O)c(NCCN(C)C)nc2cnc(-c3ccc(OC)nc3)cc21 |
| 0.32 | CCCOCCn1c(=O)c(NCC(=O)N2CCN(C)CC2)nc2ncc(-c3ccc(OC)nc3)cc21 |
| 0.68 | CCCOCCn1c(=O)c(NCC(N)=O)nc2cnc(-c3ccc(OC)nc3)cc21 |
| 0.06 | CCCOCCn1c(=O)c(NCc2cnccn2)nc2cnc(-c3ccc(OC)nc3)cc21 |
| 0.11 | CCCOCCn1c(=O)c(NCCOCC)nc2cnc(-c3ccc(OC)nc3)cc21 |
| 2.59 | CCCOCCn1c(=O)c(NCC(N)=O)nc2ncc(-c3ccc(OC)nc3)cc21 |
| 2.95 | CCCOCCn1c(=O)c(NCC(=O)O)nc2ncc(-c3ccc(OC)nc3)cc21 |
| 0.36 | CCCOCCn1c(=O)c(NCc2ccccn2)nc2ncc(-c3ccc(OC)nc3)cc21 |
| 0.1 | CCCOCCn1c(=O)c(NC[C@@H](C)O)nc2cnc(-c3ccc(OC)nc3)cc21 |
| 0.38 | CCCOCCn1c(=O)c(NCC(=O)N2CCN(CC)CC2)nc2ncc(-c3ccc(OC)nc3)cc21 |
| 0.54 | CCCOCCn1c(=O)c(NC[C@@H](C)O)nc2ncc(-c3ccc(OC)nc3)cc21 |
| 0.34 | CCCOCCn1c(=O)c(NC[C@H](C)O)nc2ncc(-c3ccc(OC)nc3)cc21 |
| 0.71 | CCCOCCn1c(=O)c(NCCCO)nc2ncc(-c3ccc(OC)nc3)cc21 |
| 0.14 | CCCOCCn1c(=O)c(N[C@H](C)CO)nc2cnc(-c3ccc(OC)nc3)cc21 |
| 0.08 | CCCOCCn1c(=O)c(NCC(=O)N2CCCC2)nc2cnc(-c3ccc(OC)nc3)cc21 |
| 4 | CCCOCCn1c(=O)c(NCCN(C)C)nc2ncc(-c3ccc(OC)nc3)cc21 |
| 0.55 | CCCOCCn1c(=O)c(N[C@@H](C)CO)nc2ncc(-c3ccc(OC)nc3)cc21 |

test system: not listed separately; test: Half life in rat; type: ADME, organism-based; conditions: in vivo

| half-life [h] | SMILES |
| --- | --- |
| 1.8 | CCCOCCn1c(=O)c(NCCN2CCOCC2)nc2ncc(-c3ccc(OC)nc3)cc21 |

target: Rod cGMP-specific 3',5'-cyclic phosphodiesterase subunit alpha (Homo sapiens, UniProt P16499); test: Inhibition of PDE6; conditions: not given
Sequence (P16499 whole entry): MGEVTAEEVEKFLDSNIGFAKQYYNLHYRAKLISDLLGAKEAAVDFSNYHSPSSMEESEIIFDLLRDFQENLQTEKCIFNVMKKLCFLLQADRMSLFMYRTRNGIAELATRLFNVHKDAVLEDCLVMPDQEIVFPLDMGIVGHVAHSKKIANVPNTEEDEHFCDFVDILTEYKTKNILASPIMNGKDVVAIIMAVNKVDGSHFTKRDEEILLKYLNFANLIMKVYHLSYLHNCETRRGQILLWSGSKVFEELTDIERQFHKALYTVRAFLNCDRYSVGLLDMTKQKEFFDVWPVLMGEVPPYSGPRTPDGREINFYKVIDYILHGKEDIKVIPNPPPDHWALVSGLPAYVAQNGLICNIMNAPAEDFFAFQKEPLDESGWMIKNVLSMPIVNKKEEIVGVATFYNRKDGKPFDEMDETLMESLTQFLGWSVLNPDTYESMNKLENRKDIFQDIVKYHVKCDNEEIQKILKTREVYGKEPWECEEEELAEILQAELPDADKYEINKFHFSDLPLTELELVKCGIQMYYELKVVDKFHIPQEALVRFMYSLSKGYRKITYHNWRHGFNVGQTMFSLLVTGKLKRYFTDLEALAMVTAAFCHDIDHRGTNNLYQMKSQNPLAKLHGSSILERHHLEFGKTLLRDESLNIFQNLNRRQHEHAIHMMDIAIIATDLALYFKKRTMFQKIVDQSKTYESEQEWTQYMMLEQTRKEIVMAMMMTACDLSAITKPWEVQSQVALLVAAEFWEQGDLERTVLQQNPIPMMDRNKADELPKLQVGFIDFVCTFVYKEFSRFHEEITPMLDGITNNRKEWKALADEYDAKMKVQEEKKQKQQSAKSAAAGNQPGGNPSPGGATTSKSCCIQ

| IC50 [nM] | SMILES |
| --- | --- |
| 1210 | CCCOCCn1c(=O)c(NCCN)nc2cnc(-c3ccc(OC)nc3)cc21 |
| 100 | CCCOCCn1c(=O)c(NCC(=O)N2CCNCC2)nc2cnc(-c3ccc(OC)nc3)cc21 |
| > 2000 | CCCOCCn1c(=O)c(NCCN)nc2ncc(-c3ccc(OC)nc3)cc21 |
| 61.8 | CCCOCCn1c(=O)c(NCCN2CCOCC2)nc2ncc(-c3ccc(OC)nc3)cc21 |
| 15.3 | CCCOCCn1c(=O)c(N[C@H]2CC[C@H](O)CC2)nc2ncc(-c3ccc(OC)nc3)cc21 |
| 17.9 | CCCOCCn1c(=O)c(N[C@@H](C)CO)nc2cnc(-c3ccc(OC)nc3)cc21 |
| 261 | CCCOCCn1c(=O)c(NCCN(C)C)nc2cnc(-c3ccc(OC)nc3)cc21 |
| 80.2 | CCCOCCn1c(=O)c(NCC(=O)N2CCN(C)CC2)nc2ncc(-c3ccc(OC)nc3)cc21 |
| 86.6 | CCCOCCn1c(=O)c(NCC(N)=O)nc2cnc(-c3ccc(OC)nc3)cc21 |
| 4.7 | CCCOCCn1c(=O)c(NCc2cnccn2)nc2cnc(-c3ccc(OC)nc3)cc21 |
| 9.3 | CCCOCCn1c(=O)c(NCCOCC)nc2cnc(-c3ccc(OC)nc3)cc21 |
| 398 | CCCOCCn1c(=O)c(NCC(N)=O)nc2ncc(-c3ccc(OC)nc3)cc21 |
| 576 | CCCOCCn1c(=O)c(NCC(=O)O)nc2ncc(-c3ccc(OC)nc3)cc21 |
| 34.5 | CCCOCCn1c(=O)c(NCc2ccccn2)nc2ncc(-c3ccc(OC)nc3)cc21 |
| 15.1 | CCCOCCn1c(=O)c(NC[C@@H](C)O)nc2cnc(-c3ccc(OC)nc3)cc21 |
| 98.9 | CCCOCCn1c(=O)c(NCC(=O)N2CCN(CC)CC2)nc2ncc(-c3ccc(OC)nc3)cc21 |
| 49.7 | CCCOCCn1c(=O)c(NC[C@@H](C)O)nc2ncc(-c3ccc(OC)nc3)cc21 |
| 51.8 | CCCOCCn1c(=O)c(NC[C@H](C)O)nc2ncc(-c3ccc(OC)nc3)cc21 |
| 124 | CCCOCCn1c(=O)c(NCCCO)nc2ncc(-c3ccc(OC)nc3)cc21 |
| 17.7 | CCCOCCn1c(=O)c(N[C@H](C)CO)nc2cnc(-c3ccc(OC)nc3)cc21 |
| 39.5 | CCCOCCn1c(=O)c(NCC(=O)N2CCCC2)nc2cnc(-c3ccc(OC)nc3)cc21 |
| 1590 | CCCOCCn1c(=O)c(NCCN(C)C)nc2ncc(-c3ccc(OC)nc3)cc21 |
| 68.2 | CCCOCCn1c(=O)c(N[C@@H](C)CO)nc2ncc(-c3ccc(OC)nc3)cc21 |
